Assays:
[1] = tested on: neurotransmitters (biogenic monoamines) in the brain; assay: Neurotransmitter levels in the brain by HPLC, neonatal zymosan visceral hyperalgesia rats; format: in vivo; settings: brain stem, vs non-LGG treated rats, LGG P21-P60, FIG. 6A
Text: This example describes the effect of LGG on the neurotransmitter levels in the brain. Briefly, chronic visceral hyperalgesia was induced in rats by administration of intracolonic zymosan (or normal saline for control) for three consecutive days during postnatal day 14-16 (P14-P16). LGG treatment was initiated after weaning (P21) and continued until P60. The levels of neurotransmitters and amino acids were quantified in the frontal cortex, sub-cortex, brain stem and cerebellum.
The quantitative assessment of neurotransmitters was conducted using HPLC-based separation followed by fluorescent and/or electrochemical detection. Briefly, brain sections were homogenized, using a tissue dismembrator, in 100-750 ul of 0.1 M TCA, which contains 10-2 M sodium acetate, 10^-4 M EDTA, 5 ng/ml isoproterenol (as internal standard) and 10.5% methanol (pH 3.8). Samples were spun in a microcentrifuge at 10000 g for 20 minutes. Samples of the supernatant were then analyzed for neurotransmitters (biogenic monoamines). Biogenic amines were determined by a specific HPLC assay utilizing an Antec Decade II (oxidation: 0.4) (3 mm GC WE, HYREF) electrochemical detector operated at 33° C. Twenty I samples of the supernatant were injected using a Water 2707 autosampler onto a Phenomenex Kintex (2.6u, 100 Å) C18 HPLC column (100×4.60 mm). Biogenic amines were eluted with a mobile phase consisting of 89.5% 0.1 M TCA, 10-2 M sodium acetate, 10^-4 M EDTA and 10.5% methanol (pH 3.8). Solvent was delivered at 0.6 ml/min using a Waters 515 HPLC pump. Using this HPLC solvent the following biogenic amines eluted in the following order: noradrenaline, Adrenaline, DOPAC, Dopamine, 5-HIAA, HVA, 5-HT, and 3-MT. HPLC control and data acquisition were managed by Empower software.

[2] = Viscera-motor response (VMR) to colorectal distension (CRD), rat colonic zymosan-treated hyperalgesia model; format: in vivo, rats
Description: Example 3 utilized a rat colonic zymosan-treated hyperalgesia model (i.e. a model of post-inflammatory visceral pain sensitivity). Zymosan was injected into the colon during the neonatal period producing short-term inflammation and subsequent long-term colonic hypersensitivity.
In this experiment, weanling rats were fed a control diet or control diet plus LGG and/or PDX/GOS for 40 days. The VMR to CRD was quantified using electromyographic (EMG) recordings from the external oblique muscle of the abdomen as an objective measure of visceral sensation in all groups. A stimulus-response function to graded CRD was constructed to test the colonic intensity dependent increase in EMG activity change of external oblique muscle.

Lactobacillus rhamnosus GG [LGG]
level of 5-hydroxyindoleacetic acid (5-HIAA) [1]: significant increase | level of noradrenaline (NA) [1]: significant increase | level of serotonin (5-HT) [1]: significant increase | visceral hypersensitivity ([2]; neonatal colonic zymosan model): attenuated | sensitivity to pain (EMG recordings) ([2]; p<0.05 vs Control+Zymosan, n=10, fed 40 days): significantly attenuated | viscera-motor response (VMR) to CRD ([2]; zymosan-treated rats, FIG. 7): significantly attenuated
